We go through one compound from patent publication US10576085B2, “Substituted aminopurine compounds, compositions thereof, and methods of treatment therewith” (Signal Pharmaceuticals, LLC, priority 2016, dated 2020).

What all share (format): cell-based
Test [1] relates to surface PD-L1. Kind of test: Cell surface PD-L1, FACS, multiple cancer cell lines. Particulars: 48 h. The method, then:
The effect of Compound 1 was evaluated on PD-L1 expression levels. Cells were cultured in presence or absence of Compound 1 for indicated time before expression levels of PD-L1, DUSP4 and α-tubulin or α-actin were measured by Western blot. To detect surface levels of PD-L1, cells were treated with DMSO or Compound 1 at indicated concentrations for 48 h and cell surface expression of PD-L1 was detected using flow cytometry analysis (FACS) with an APC-labeled antibody to PD-L1 (clone 29E.1A3; BioLegend, San Diego, Calif.). Geometric mean of PD-L1 positive cells was determined by FlowJo 10 (Treestar, Ashland, Oreg.).

The test system of test [2] is AGS. Briefly: Apoptosis, Caspase 3/7-Glo. The settings on record: Gastric, CTNNB1 (G43E), KRAS (G12D), β-catenin Active. The method, then: (§1) Prior to testing, cells were grown and expanded in culture flasks to provide sufficient amounts of starting material. Cells were then diluted to the appropriate densities and added directly to the compound-spotted 384-well plates. Cells were allowed to grow for 72 h at 37° C./5% CO2. At the time when compound was added (t0), initial cell number was assessed via a viability assay (Cell Titer-Glo) by quantifying the level of luminescence generated by ATP present in viable cells. After 72 h, cell viability of compound-treated cells was assessed via Cell Titer-Glo and luminescence measurement. The apoptotic response to Compound 1 was assessed by quantifying the activities of caspase 3 and caspase 7 (Caspase 3/7-Glo) in treated cells and DMSO control cells.
(§2) Proliferation and apoptosis were measured using CellTiter-Glo and Caspase 3/7-Glo. CalX2 values are the lowest concentration at which Compound 1 induces a 2-fold increase of cleaved caspase 3/7 compared to DMSO control. Proliferation and apoptosis data is the average of 3 experiments.
(§3) The mutation status of BRAF, CTNNB1, KRAS, and EGFR in five cell lines evaluated was based on public data (COSMIC and CCLE) and confirmed internally. β-catenin status was evaluated using TOP Flash reporter system by transient transfection. A cell line was defined as β-catenin active if a ratio of Top Flash reporter over Fop Flash reporter is greater than 2. N/A: Not available. Transfection efficiency in Colo 205 (BRAF V600E) was too low to access its β-catenin activity using this approach. Antiproliferative and apoptotic activity of Compound 1 in the five cell lines were measured as described above.

Test [3] has as its system LOX-IMVI. Kind of test: Apoptosis, Caspase 3/7-Glo. Particulars: Melanoma, BRAF (V600E), β-catenin Inactive. The method, then:
as §1, §2, §3

In test [4] the test system is SW48. Kind of test: Apoptosis, Caspase 3/7-Glo. Particulars: SW48, CRC; CTNNB1 (S33Y); β-catenin Active. How it is done:
as §1, §2, §3

Test [5] relates to Colo 205. Briefly: Apoptosis, Caspase 3/7-Glo. The settings on record: Colo 205, CRC; BRAF (V600E); β-catenin status N/A. The method, then:
as §1, §2, §3

In test [6] the test system is beta-catenin and YAP target genes (Axin2, CTGF, AREG). Briefly: Beta-catenin and YAP target genes, qPCR, Colo 205. How it is done:
Cellular activity against beta-catenin and YAP target genes by Compound 1 was evaluated. Colon cancer cell line Colo 205 (BRAF V600E) cultures were treated with DMSO or increasing concentrations of Compound 1 for 2, 8 or 24 h. RNAs were extracted using Cell-To-CT kit and quantitative PCR was performed with probes specific for Axin2, CTGF, and AREG. Specific probes for β-actin were used for normalization.
Background: In qPCR the cycle at which signal appears reflects the starting amount.

The test system of test [7] is MAPK, β-catenin, and YAP. Briefly: MAPK, WNT/β-catenin, Hippo/YAP pathway markers (Western blot, qPCR) in SW48. The method, then: Compound 1 modulation of MAPK, WNT/β-catenin, and Hippo/YAP pathway markers was evaluated by standard Western blotting. LOX-IMVI, SW48, and Colo-205 cells were plated in 6-well plates at a density of 250,000 cells per well and were allowed to attach overnight. Compound 1 was added to cells at concentrations of 0.03, 0.1, 0.3, 1, and 3 μM for durations of 2, 8, and 24 hours. […] The cell lysates were heated in sodium dodecyl sulfate (SDS)-sample buffer and 40 μg of cell lysate per condition were loaded onto gels and separated using SDS polyacrylamide gel electrophoresis (PAGE). Protein was transferred to nitrocellulose membrane, and immunoblotted with anti DUSP4, DUSP6, cMyc, Cyclin D1, YAP, AXIN2, HDACS (phospho S498), and β-actin antibodies. Membranes were scanned on the Licor Odyssey system.
Compound 1 modulation of MAPK, WNT/β-catenin, and Hippo/YAP pathway genes was evaluated by real-time (RT)-qPCR. […], SW48, and Colo-205 cells were plated in 96-well plates at a density of 20,000 cells per well and were allowed to attach overnight. Compound 1 was added to cells at half log concentrations from 1 nM to 10 μM for durations of 2, 8, and 24 hours. Cells were harvested using the TaqMan Gene Expression Cells-to-CT Kit according to the product manual. […]
For orientation: A western blot detects proteins with antibodies after separation by electrophoresis.

In the case of `C[C@]1(C(N)=O)CC[C@@H](n2c(Nc3c(Cl)cc(Cl)cc3Cl)nc3cnc(N[C@@H]4CCOC[C@H]4F)nc32)CC1` [Compound 1, cis-4-[2-{[(3S,4R)-3-fluorooxan-4-yl]amino}-8-(2,4,6-trichloroanilino)-9H-purin-9-yl]-1-methyl cyclohexane-1-carboxamide], the “Surface PD-L1 levels” value in test [1] is “inhibited”. Also, the “Apoptosis induction CalX2” value was found to be 0.004 ± 0.002 µM in test [2], 0.034 ± 0.028 µM in test [3], 0.005 ± 0.001 µM in test [4] and 0.053 ± 0.039 µM in test [5]. In addition, in test [6] (Colo 205), the “Axin2 RNA” value is on record as “increased Axin2 RNA”. Moreover, the “Expression of Hippo/YAP target genes (CTGF, AREG)” value in test [6] (Colo 205 (BRAF V600E), 2, 8 and 24 hr) is given as “significantly reduced”. Moreover, the “Modulation of MAPK, β-catenin, and YAP” value in test [7] (BRAF and CTNNB1 mutant cell line SW48 (FIG. 20)) is “modulates MAPK, β-catenin, and YAP”. Moreover, the “Target gene expression controlled by MAPK, β-catenin, and YAP” value in test [7] (SW48 (FIGS. 21A-21B)) was “modulates target gene expression”.
